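Briefly, cells in 96-well plates were exposed to five compound concentrations for 48 h, and endpoints were estimated by linear interpolation. The concentration for full growth arrest is given as TGI.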
Assays:
Assay in all cases: NCI-60 cell line screen, 48 h
UACC-257 melanoma = test system: UACC-257 melanoma
MDA-MB-435 = test system: MDA-MB-435
EKVX NSCLC = test system: EKVX NSCLC
HOP-92 NSCLC = test system: HOP-92 NSCLC
LOX IMVI melanoma = test system: LOX IMVI melanoma
NCI-H226 lung = test system: NCI-H226 lung
SR leukemia = test system: SR leukemia
NCI-H522 lung = test system: NCI-H522 lung
T-47D breast = test system: T-47D breast
U251 CNS = test system: U251 CNS
SK-MEL-2 melanoma = test system: SK-MEL-2 melanoma
SK-MEL-28 melanoma = test system: SK-MEL-28 melanoma
UACC-62 melanoma = test system: UACC-62 melanoma
BT-549 breast = test system: BT-549 breast
OVCAR-8 ovarian = test system: OVCAR-8 ovarian
SK-MEL-5 melanoma = test system: SK-MEL-5 melanoma
SN12C renal = test system: SN12C renal
HT29 colon = test system: HT29 colon
786-0 renal = test system: 786-0 renal
NCI-H460 lung = test system: NCI-H460 lung
SF-295 CNS = test system: SF-295 CNS
HS 578T breast = test system: HS 578T breast
SK-OV-3 ovarian = test system: SK-OV-3 ovarian
NCI-H23 lung = test system: NCI-H23 lung
HOP-62 NSCLC = test system: HOP-62 NSCLC
K-562 leukemia = test system: K-562 leukemia
HCT-15 colon = test system: HCT-15 colon
NCI/ADR-RES ovarian = test system: NCI/ADR-RES ovarian
SF-268 CNS = test system: SF-268 CNS
CAKI-1 renal = test system: CAKI-1 renal
OVCAR-5 ovarian = test system: OVCAR-5 ovarian
SW-620 colon = test system: SW-620 colon
A549 NSCLC = test system: A549 NSCLC
OVCAR-3 ovarian = test system: OVCAR-3 ovarian
UO-31 renal = test system: UO-31 renal
PC-3 prostate = test system: PC-3 prostate
SNB-19 CNS = test system: SNB-19 CNS
COLO 205 colon = test system: COLO 205 colon
RXF 393 renal = test system: RXF 393 renal
M14 melanoma = test system: M14 melanoma
MALME-3M melanoma = test system: MALME-3M melanoma
MDA-MB-231 breast = test system: MDA-MB-231 breast
DU-145 prostate = test system: DU-145 prostate
CCRF-CEM leukemia = test system: CCRF-CEM leukemia
HCC-2998 colon = test system: HCC-2998 colon
TK-10 renal = test system: TK-10 renal
SNB-75 CNS = test system: SNB-75 CNS
RPMI-8226 leukemia = test system: RPMI-8226 leukemia
HCT-116 colon = test system: HCT-116 colon
MDA-N = test system: MDA-N
OVCAR-4 ovarian = test system: OVCAR-4 ovarian
A498 renal = test system: A498 renal
HL-60(TB) leukemia = test system: HL-60(TB) leukemia
MCF7 breast = test system: MCF7 breast
KM12 colon = test system: KM12 colon
ACHN renal = test system: ACHN renal
IGROV1 ovarian = test system: IGROV1 ovarian
MOLT-4 leukemia = test system: MOLT-4 leukemia
SF-539 CNS = test system: SF-539 CNS

Compound `O=C(O)/C=C\C(=O)Nc1ccc2c(c1)-c1ccccc1C2` has a TGI (UACC-257 melanoma) greater than 100 µM, a TGI (MDA-MB-435) greater than 100 µM and a TGI (EKVX NSCLC) greater than 100 µM. It also gave a TGI (HOP-92 NSCLC) greater than 100 µM, a TGI (LOX IMVI melanoma) greater than 100 µM and a TGI (NCI-H226 lung) of 78.2 µM. For the same compound, the TGI (SR leukemia) was greater than 100 µM, the TGI (NCI-H522 lung) was greater than 100 µM and the TGI (T-47D breast) was greater than 100 µM. The TGI (U251 CNS) was greater than 100 µM, the TGI (SK-MEL-2 melanoma) was greater than 100 µM and the TGI (SK-MEL-28 melanoma) was greater than 100 µM. For the same compound, the TGI (UACC-62 melanoma) was greater than 100 µM, the TGI (BT-549 breast) was greater than 100 µM and the TGI (OVCAR-8 ovarian) was greater than 100 µM. It also gave a TGI (SK-MEL-5 melanoma) greater than 100 µM, a TGI (SN12C renal) greater than 100 µM and a TGI (HT29 colon) greater than 100 µM. The TGI (786-0 renal) was greater than 100 µM, the TGI (NCI-H460 lung) was greater than 100 µM and the TGI (SF-295 CNS) was greater than 100 µM. The TGI (HS 578T breast) was greater than 100 µM, the TGI (SK-OV-3 ovarian) was greater than 100 µM and the TGI (NCI-H23 lung) was greater than 100 µM. For the same compound, the TGI (HOP-62 NSCLC) was greater than 100 µM, the TGI (K-562 leukemia) was greater than 100 µM and the TGI (HCT-15 colon) was greater than 100 µM. For the same compound, the TGI (NCI/ADR-RES ovarian) was greater than 100 µM, the TGI (SF-268 CNS) was greater than 100 µM and the TGI (CAKI-1 renal) was greater than 100 µM. The TGI (OVCAR-5 ovarian) was greater than 100 µM, the TGI (SW-620 colon) was greater than 100 µM and the TGI (A549 NSCLC) was greater than 100 µM. It also gave a TGI (OVCAR-3 ovarian) greater than 100 µM, a TGI (UO-31 renal) greater than 100 µM and a TGI (PC-3 prostate) greater than 100 µM. It also gave a TGI (SNB-19 CNS) greater than 100 µM, a TGI (COLO 205 colon) greater than 100 µM and a TGI (RXF 393 renal) greater than 100 µM. It also gave a TGI (M14 melanoma) greater than 100 µM, a TGI (MALME-3M melanoma) greater than 100 µM and a TGI (MDA-MB-231 breast) greater than 100 µM. For the same compound, the TGI (DU-145 prostate) was greater than 100 µM, the TGI (CCRF-CEM leukemia) was greater than 100 µM and the TGI (HCC-2998 colon) was greater than 100 µM. The TGI (TK-10 renal) was greater than 100 µM, the TGI (SNB-75 CNS) was greater than 100 µM and the TGI (RPMI-8226 leukemia) was greater than 100 µM. For the same compound, the TGI (HCT-116 colon) was greater than 100 µM, the TGI (MDA-N) was greater than 100 µM and the TGI (OVCAR-4 ovarian) was greater than 100 µM. The TGI (A498 renal) was greater than 100 µM, the TGI (HL-60(TB) leukemia) was greater than 100 µM and the TGI (MCF7 breast) was greater than 100 µM. For the same compound, the TGI (KM12 colon) was greater than 100 µM, the TGI (ACHN renal) was greater than 100 µM and the TGI (IGROV1 ovarian) was greater than 100 µM.

For `N#Cc1cc2c(cc1C#N)SCCSCCCSCCS2`, the TGI (UACC-257 melanoma) was greater than 100 µM, the TGI (MDA-MB-435) was greater than 100 µM and the TGI (EKVX NSCLC) was greater than 100 µM. It also gave a TGI (HOP-92 NSCLC) of 7.05 µM, a TGI (LOX IMVI melanoma) of 22.7 µM and a TGI (NCI-H226 lung) greater than 84.8 µM. It also gave a TGI (SR leukemia) greater than 70.3 µM, a TGI (NCI-H522 lung) greater than 85.7 µM and a TGI (T-47D breast) greater than 80.8 µM. For the same compound, the TGI (U251 CNS) was 28.2 µM, the TGI (SK-MEL-2 melanoma) was 42.8 µM and the TGI (SK-MEL-28 melanoma) was greater than 100 µM. The TGI (UACC-62 melanoma) was 27.6 µM, the TGI (BT-549 breast) was 31.2 µM and the TGI (OVCAR-8 ovarian) was 31.8 µM. It also gave a TGI (SK-MEL-5 melanoma) greater than 100 µM, a TGI (SN12C renal) greater than 100 µM and a TGI (HT29 colon) greater than 100 µM. It also gave a TGI (786-0 renal) of 19 µM, a TGI (NCI-H460 lung) greater than 53.8 µM and a TGI (SF-295 CNS) of 18.3 µM. It also gave a TGI (HS 578T breast) of 28.8 µM, a TGI (SK-OV-3 ovarian) of 45.4 µM and a TGI (NCI-H23 lung) of 38.3 µM. For the same compound, the TGI (HOP-62 NSCLC) was 4.95 µM, the TGI (K-562 leukemia) was greater than 100 µM and the TGI (HCT-15 colon) was 34.9 µM. The TGI (NCI/ADR-RES ovarian) was greater than 100 µM, the TGI (SF-268 CNS) was 29.9 µM and the TGI (CAKI-1 renal) was greater than 57.8 µM. It also gave a TGI (OVCAR-5 ovarian) greater than 100 µM, a TGI (SW-620 colon) greater than 100 µM and a TGI (A549 NSCLC) greater than 100 µM. The TGI (OVCAR-3 ovarian) was greater than 100 µM, the TGI (UO-31 renal) was greater than 90.6 µM and the TGI (PC-3 prostate) was greater than 82.8 µM. The TGI (SNB-19 CNS) was 22.9 µM, the TGI (COLO 205 colon) was greater than 100 µM and the TGI (RXF 393 renal) was 18.1 µM. For the same compound, the TGI (M14 melanoma) was greater than 100 µM, the TGI (MALME-3M melanoma) was greater than 65.1 µM and the TGI (MDA-MB-231 breast) was 29 µM. It also gave a TGI (MOLT-4 leukemia) greater than 100 µM, a TGI (DU-145 prostate) greater than 100 µM and a TGI (CCRF-CEM leukemia) greater than 75 µM. It also gave a TGI (HCC-2998 colon) greater than 100 µM, a TGI (TK-10 renal) of 14.3 µM and a TGI (SNB-75 CNS) of 18.2 µM. For the same compound, the TGI (RPMI-8226 leukemia) was greater than 100 µM, the TGI (HCT-116 colon) was greater than 86.6 µM and the TGI (SF-539 CNS) was 43.2 µM. For the same compound, the TGI (MDA-N) was greater than 100 µM, the TGI (OVCAR-4 ovarian) was greater than 100 µM and the TGI (A498 renal) was greater than 92.1 µM. The TGI (MCF7 breast) was greater than 100 µM, the TGI (KM12 colon) was greater than 100 µM and the TGI (ACHN renal) was 19.4 µM. For the same compound, the TGI (IGROV1 ovarian) was 97.8 µM.

With `CC(CN1NC12CCCC2)N1NC12CCCC2` (stereo not drawn) the TGI (UACC-257 melanoma) was greater than 100 µM, the TGI (MDA-MB-435) was greater than 100 µM and the TGI (EKVX NSCLC) was greater than 100 µM. The TGI (HOP-92 NSCLC) was greater than 100 µM, the TGI (LOX IMVI melanoma) was greater than 100 µM and the TGI (NCI-H226 lung) was greater than 100 µM. For the same compound, the TGI (NCI-H522 lung) was greater than 100 µM, the TGI (T-47D breast) was greater than 100 µM and the TGI (U251 CNS) was greater than 100 µM. The TGI (SK-MEL-2 melanoma) was greater than 100 µM, the TGI (SK-MEL-28 melanoma) was greater than 100 µM and the TGI (UACC-62 melanoma) was greater than 100 µM. The TGI (BT-549 breast) was greater than 100 µM, the TGI (OVCAR-8 ovarian) was greater than 100 µM and the TGI (SK-MEL-5 melanoma) was greater than 100 µM. It also gave a TGI (SN12C renal) greater than 100 µM, a TGI (HT29 colon) greater than 100 µM and a TGI (786-0 renal) greater than 100 µM. The TGI (NCI-H460 lung) was greater than 100 µM, the TGI (SF-295 CNS) was greater than 100 µM and the TGI (HS 578T breast) was greater than 100 µM. The TGI (SK-OV-3 ovarian) was greater than 100 µM, the TGI (NCI-H23 lung) was greater than 100 µM and the TGI (HOP-62 NSCLC) was greater than 100 µM. The TGI (K-562 leukemia) was greater than 100 µM, the TGI (HCT-15 colon) was greater than 100 µM and the TGI (NCI/ADR-RES ovarian) was greater than 100 µM. The TGI (SF-268 CNS) was greater than 100 µM, the TGI (CAKI-1 renal) was greater than 100 µM and the TGI (OVCAR-5 ovarian) was greater than 100 µM. The TGI (SW-620 colon) was greater than 100 µM, the TGI (A549 NSCLC) was greater than 100 µM and the TGI (OVCAR-3 ovarian) was greater than 100 µM. For the same compound, the TGI (UO-31 renal) was greater than 100 µM, the TGI (PC-3 prostate) was greater than 100 µM and the TGI (SNB-19 CNS) was greater than 100 µM. For the same compound, the TGI (COLO 205 colon) was greater than 100 µM, the TGI (RXF 393 renal) was greater than 100 µM and the TGI (M14 melanoma) was greater than 100 µM. The TGI (MALME-3M melanoma) was greater than 100 µM, the TGI (MDA-MB-231 breast) was greater than 100 µM and the TGI (MOLT-4 leukemia) was greater than 100 µM. The TGI (DU-145 prostate) was greater than 100 µM, the TGI (CCRF-CEM leukemia) was greater than 100 µM and the TGI (HCC-2998 colon) was greater than 100 µM. The TGI (TK-10 renal) was greater than 100 µM, the TGI (SNB-75 CNS) was greater than 100 µM and the TGI (RPMI-8226 leukemia) was greater than 100 µM. The TGI (HCT-116 colon) was greater than 100 µM, the TGI (SF-539 CNS) was greater than 100 µM and the TGI (MDA-N) was greater than 100 µM. The TGI (OVCAR-4 ovarian) was greater than 100 µM, the TGI (A498 renal) was greater than 100 µM and the TGI (HL-60(TB) leukemia) was greater than 100 µM. For the same compound, the TGI (MCF7 breast) was greater than 100 µM, the TGI (KM12 colon) was greater than 100 µM and the TGI (ACHN renal) was greater than 100 µM. It also gave a TGI (IGROV1 ovarian) greater than 100 µM.

Reference: PubChem BioAssay (NCI)
